In patent publication US12357645B2, “Drug combination for treatment of gastric cancer” (priority 2023, dated 2025):

Tested on: patients with advanced gastric cancer (AGC)
Test: Phase 1 study of minnelide prodrug alone or with paclitaxel in advanced gastric cancer (NCT 05566834): safety, DLT, MTD, adverse events
[1] = Regimen A (PO daily x21 d/28 d), n = 11

SMILES: CC(C)[C@]12O[C@H]1[C@@H]1O[C@]13[C@]1(O[C@H]1C[C@H]1C4=C(CC[C@@]13C)C(=O)OC4)[C@@H]2OCOP(=O)([O-])[O-].[Na+].[Na+] [minnelide prodrug, disodium; [(1S,2S,4S,5S,7S,8R,9R,11S, 13S)-1-methyl-17-oxo-7-propan-2-yl-3,6,10,16-tetraoxaheptacyclo [11.7.0.0^2,4.0^2,9.0^5,7.0^9,11.0^14,18]icos-14 (18)-en-8-yl]oxymethyl phosphate]
- Grade 5 AEs caused by gastric cancer progression, number (Regimen A): 3
- minnelide prodrug-related AE abdominal pain (Regimen A): 27.3%
- minnelide prodrug-related AE anorexia (Regimen A): 54.5%
- minnelide prodrug-related AE nausea (Regimen A): 45.5%
- Minnelide-related AE Abdominal pain, Any [1]: 3 (27.3) n (%)
- Minnelide-related AE Abdominal pain, ≥Gr 3 [1]: 2 (18.2) n (%)
- Minnelide-related AE Anorexia, Any [1]: 6 (54.5)/— ^ n (%)
- Minnelide-related AE Fatigue, Any [1]: 2 (18.2)/— ^ n (%)
- Minnelide-related AE Nausea, Any [1]: 5 (45.5) n (%)
- Minnelide-related AE Nausea, ≥Gr 3 [1]: 2 (18.2) n (%)
- Minnelide-related AE Neutropenia, Any [1]: 1 (9.1)/1 (9.1) n (%)
- Minnelide-related AE Neutropenia, ≥Gr 3 [1]: 1 (9.1)/1 (9.1) n (%)
- Minnelide-related AE Overall, Any [1]: 8 (72.7) n (%)
- Minnelide-related AE Vomiting, Any [1]: 1 (9.1)/1 (9.1) n (%)
- Minnelide-related AE Vomiting, ≥Gr 3 [1]: 1 (9.1)/1 (9.1) n (%)
- TRAE Abdominal pain, Any [1]: 5 (45.5) n (%)
- TRAE Abdominal pain, ≥Gr 3 [1]: 2 (18.2) n (%)
- TRAE Anemia, Any [1]: 2 (18.2)/2 (18.2) n (%)
- TRAE Anemia, ≥Gr 3 [1]: 2 (18.2)/2 (18.2) n (%)
- TRAE Annualar scaly plaques, Any [1]: 1 (9.1)/— n (%)
- TRAE Anorexia, Any [1]: 8 (72.7)/— n (%)
- TRAE Azotemia, Any [1]: 1 (9.1)/— n (%)
- TRAE Cancer pain, Any [1]: 3 (27.3) n (%)
- TRAE Cancer pain, ≥Gr 3 [1]: 1 (9.1) n (%)
- TRAE Cancer progression, Any [1]: 3 (27.3)/3 (27.3) n (%)
- TRAE Cancer progression, ≥Gr 3 [1]: 3 (27.3)/3 (27.3) n (%)
- TRAE Constipation, Any [1]: 1 (9.1)/— n (%)
- TRAE Decreased vision, Any [1]: 1 (9.1)/— n (%)
- TRAE Depression, Any [1]: 1 (9.1)/— n (%)
- TRAE Dyspepsia, Any [1]: 1 (9.1)/— n (%)
- TRAE Dysuria, Any [1]: 1 (9.1)/— n (%)
- TRAE Fatigue, Any [1]: 3 (27.3)/— n (%)
- TRAE Gastric stenosis, Any [1]: 1 (9.1)/1 (9.1) n (%)
- TRAE Gastric stenosis, ≥Gr 3 [1]: 1 (9.1)/1 (9.1) n (%)
- TRAE Hypophosphatemi, Any [1]: 1 (9.1)/1 (9.1) n (%)
- TRAE Hypophosphatemi, ≥Gr 3 [1]: 1 (9.1)/1 (9.1) n (%)
- TRAE Nausea, Any [1]: 6 (54.5) n (%)
- TRAE Nausea, ≥Gr 3 [1]: 2 (18.2) n (%)
- TRAE Neutropenia, Any [1]: 1 (9.1)/1 (9.1) n (%)
- TRAE Neutropenia, ≥Gr 3 [1]: 1 (9.1)/1 (9.1) n (%)
- TRAE Overall, Any [1]: 11 (100.0) n (%)
- TRAE Overall, ≥Gr 3 [1]: 8 (72.7) n (%)
- TRAE Tachycardia, Any [1]: 1 (9.1)/— n (%)
- TRAE Urinary tract infection, Any [1]: 1 (9.1)/— n (%)
- TRAE Vomiting, Any [1]: 3 (27.3) n (%)
- TRAE Vomiting, ≥Gr 3 [1]: 1 (9.1) n (%)
- dose-limiting toxicities (DLTs), number (Regimen A, dose level 3, 1.5 mg, Grade 3 abdominal pain): two and Two
- Minnelide-related AE Abdominal pain, Any (Total Regimens A-C, n = 36): 14 (38.9) n (%)
- Minnelide-related AE Abdominal pain, ≥Gr 3 (Total Regimens A-C, n = 36): 4 (11.1) n (%)
- Minnelide-related AE Anorexia, Any (Total Regimens A-C, n = 36): 15 (41.7)/— n (%)
- Minnelide-related AE Constipation, Any (Total Regimens A-C, n = 36): 1 (2.8)/— n (%)
- Minnelide-related AE Fatigue, Any (Total Regimens A-C, n = 36): 4 (11.1)/— n (%)
- Minnelide-related AE General weakness, Any (Total Regimens A-C, n = 36): 1 (2.8)/— n (%)
- Minnelide-related AE Nausea, Any (Total Regimens A-C, n = 36): 10 (27.8) n (%)
- Minnelide-related AE Nausea, ≥Gr 3 (Total Regimens A-C, n = 36): 2(5.6) n (%)
- Minnelide-related AE Neutropenia, Any (Total Regimens A-C, n = 36): 11 (30.5) n (%)
- Minnelide-related AE Neutropenia, ≥Gr 3 (Total Regimens A-C, n = 36): 7 (19.4) n (%)
- Minnelide-related AE Overall, Any (Total Regimens A-C, n = 36): 27 (75.0) n (%)
- Minnelide-related AE Overall, ≥Gr 3 (Total Regimens A-C, n = 36): 10 (27.8) n (%)
- Minnelide-related AE Pruritus, Any (Total Regimens A-C, n = 36): 1 (2.8)/— n (%)
- Minnelide-related AE Vomiting, Any (Total Regimens A-C, n = 36): 3 (8.3)/— n (%)
- TRAE Abdominal pain, Any (Total Regimens A-C, n = 36): 16 (44.4) n (%)
- TRAE Abdominal pain, ≥Gr 3 (Total Regimens A-C, n = 36): 4 (11.1) n (%)
- TRAE Alopecia, Any (Total Regimens A-C, n = 36): 2 (5.6)/— n (%)
- TRAE Anemia, Any (Total Regimens A-C, n = 36): 5 (13.9) n (%)
- TRAE Anemia, ≥Gr 3 (Total Regimens A-C, n = 36): 3 (8.3) n (%)
- TRAE Annualar scaly plaques, Any (Total Regimens A-C, n = 36): 1 (2.8)/— n (%)
- TRAE Anorexia, Any (Total Regimens A-C, n = 36): 18 (50.0)/— n (%)
- TRAE Azotemia, Any (Total Regimens A-C, n = 36): 2 (5.6)/— n (%)
